{
  "source": "paper PMC10877416",
  "about": "(Translational Oncology, 2024)",
  "key": {"[1]": {"assay": "Solubility in water", "type": "physicochemical", "from_the_text": "To increase solubility, its sequence was elongated at the N- and C-terminals by adding hydrophilic amino acids from the protein sequence. […] These modifications were introduced to prevent the oxidation of methionine and cysteine."}, "[2]": {"molecular_target": "T1, PD-1 (Homo sapiens, UniProt Q15116)", "T1 construct": "purchased Recepton Company, Poland R1–001–03", "T1 sequence (Q15116 25-288)": "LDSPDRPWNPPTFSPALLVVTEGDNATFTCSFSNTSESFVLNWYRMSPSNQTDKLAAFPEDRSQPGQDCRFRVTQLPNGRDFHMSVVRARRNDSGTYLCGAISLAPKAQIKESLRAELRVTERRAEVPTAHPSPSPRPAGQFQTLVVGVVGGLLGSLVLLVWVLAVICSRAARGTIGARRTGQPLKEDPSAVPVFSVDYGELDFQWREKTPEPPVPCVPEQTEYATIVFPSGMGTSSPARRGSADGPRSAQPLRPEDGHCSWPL", "assay": "SPR analysis: PD-1 titrated over immobilized biotinylated peptides or PD-L1", "type": "binding", "conditions": "SPR KD 198 µM versus 2.04 µM", "method": "To obtain the kinetic parameters of the peptide/protein interaction the SPR technique was used.\nBiacore T200 equipment (Cytiva, Marlborough, USA) was used to perform SPR analysis according to the manufacturer's protocol. […] All measurements were performed using PBS-P as a running buffer; the flow rate was set to 30 μl/min at 25°C. The chip was regenerated with 1.5 M NaCl and 10 mM glycine pH 3. The obtained data were analysed using Biacore T200 Evaluation Software (Cytiva, Marlborough, USA).\nResults were calculated using Biacore T200 Evaluation Software, from at least three independent titration analyses. The 1:1 binding model was applied."}, "[3]": {"molecular_target": "T2, PD-1/PD-L1 complex (Homo sapiens, UniProt Q15116)", "T2 construct": "expressed in transfected cells", "T2 sequence (Q15116 25-288, one chain of several)": "as the sequence (Q15116 25-288) above", "assay": "PD-1 T cell NF-κB::eGFP reporter co-culture assay", "type": "cell-based", "conditions": "PD-1 reporter cells + TCS CD86/PD-L1; peptide 150.00-5.56 µM; 90 min preincubation, 24 h co-culture; flow cytometry; normalized to PD-1 reporter/TCS CD86", "method": "Moreover, NF-κB-eGFP activation (signal 2) is enhanced by the interaction of CD86 on TCS with CD28 on modified Jurkat cells. […] The peptides were tested at concentrations between 150.00 and 5.56 µM.\nThe experiment was performed on 96-well tissue culture-treated transparent plates by using RPMI 1640 medium containing 10 % FBS. The cells were seeded into the wells at the density of 5 × 10^4 cells/well for reporter cells and 2 × 10^4 cells/well for TCS cell lines. The peptides were prepared in three-fold serial dilutions in concentrations ranging from 150.00 to 5.56 μM and were preincubated with the reporter cells for 90 min. Subsequently, cells of the second cell line were added; co-culture was performed for 24 h at 37°C under a 5 % CO2 atmosphere. […] After 24 h, the cells were harvested, stained with APC-conjugated mCD45.2 mAb to exclude TCS from the analysis, and eGFP expression was measured by flow cytometry. The mean and standard deviation values of the gMFI of the viable cell population were determined. The experiment was performed at least three times in duplicate. […] The flow cytometry analysis was performed on a FACSCalibur flow cytometer (Becton Dickinson Immunocytometry System, USA) by using CellQuest software. Data were analysed with FlowJo (version 10.0.6, Tree Star, Ashland, OR) and GraphPad Prism (version 8, GraphPad Software, Inc., La Jolla, CA)."}, "[4]": {"test_system": "TCS Ctrl cells", "assay": "Cell viability assay (CellTiter-Glo), TCS Ctrl cells", "type": "cell-based", "conditions": "highest tested concentration, 24 h", "method": "(§1) The influence of the peptides on Jurkat E6.1 cells and genetically modified BW5417 (T cell stimulators, TCS Ctrl) cells was subsequently examined. […] Cell viability was measured after 24 h of incubation with peptide concentrations ranging from 150.00 to 5.56 µM. The CellTiter-Glo® luminescence-based assay was used to estimate the number of viable cells. This test allowed determination of adenosine triphosphate (ATP), which is related to the metabolically active cells and proportional to the number of living cells . The results were compared and normalized to untreated cells (Fig. 5A).\n(§2) Cell line viability was examined on two cell lines – Jurkat E6.1 cells and TCS Ctrl cells. The experiments were performed on 96-well solid white plates for cell culture. Jurkat E6.1 cells and TCS Ctrl cells were seeded into wells on the day of the experiment at the density of 2 × 10^4 cells per well in 50 µl RPMI 1640 medium containing 10 % FBS. Subsequently, 50 µl of peptides at 150 to 1.90 µM concentrations were added to the wells. Cell viability was measured using 100 µl of Cell Titter-Glo (Promega Corporation, #G7570) added to the wells. Luminescence was measured on a Spark M10 plate reader (Tecan, Switzerland) with an integration time of 0.5 s. The experiment was performed at least three times, and the results were analysed by GraphPad Prism 8 software."}, "[5]": {"assay": "Peptide stability in RPMI 1640 medium with 10 % FBS", "conditions": "RPMI 1640 + 10 % heat-inactivated FBS; for Additional decrease in peptide content after 24 h of incubation: 37°C; for Stability in the medium: 0 and 24 h", "method": "Samples were collected at 0 h and after 24 h of incubation and analysed by RP-HPLC. The peptide content in the samples was determined by comparing the corresponding peak areas to those of control samples, which constituted the corresponding peptides dissolved in H2O at 0 h. The conditions selected for the stability experiment were intended to simulate those used for cellular research.\nSamples were prepared by dissolving the peptides in H2O and adding them to the medium in the ratio of 1:3 (v:v). The final concentration of the peptides in the sample was 100 μM. The samples before analysis were collected at two time points: 0 h and 24 h of incubation (37°C with continuous stirring). The samples were then frozen in liquid N2 and stored at -80°C until the end of the experiment. Prior to analysis, the samples were thawed on ice, suspended in a 4-fold excess of absolute ethanol (v:v), and centrifuged (15,000 rpm, 4°C, 20 min). The supernatant was then transferred to test tubes, evaporated using a vacuum concentrator, then dissolved in 100 μl of 0.1 % trifluoroacetic acid (TFA) in H2O. The analysis was performed by analytical RP-HPLC using a Luna C18(2) (250 mm × 4.6 mm, 5 μm) column and a linear gradient from 5 % B to 100 % B in A over 60 min (A: 0.1 % TFA in H2O; B: 0.08 % TFA in 80 % ACN in H2O). Peptides that dissolved in H2O and the medium with 10 % FBS (without peptides) were used as controls."}, "[6]": {"test_system": "Jurkat E6.1 cells", "assay": "Cell viability assay (CellTiter-Glo), Jurkat E6.1 cells", "conditions": "24 h; for Effect on Jurkat E6.1 cells at lower concentrations: concentrations below the highest tested (150.00 to 5.56 µM range); for Number of living, metabolically active Jurkat E6.1 cells: highest tested concentration (150.00 µM), normalized to untreated cells, three experiments in triplicate", "method": "as §1, §2"}, "[7]": {"molecular_target": "T3, PD-1 (Recepton) (human, UniProt Q15116 25-170)", "T3 construct": "also called PD-1 protein; source: bought: Recepton Company, Poland, #R1–001–03", "T3 sequence (Q15116 25-170)": "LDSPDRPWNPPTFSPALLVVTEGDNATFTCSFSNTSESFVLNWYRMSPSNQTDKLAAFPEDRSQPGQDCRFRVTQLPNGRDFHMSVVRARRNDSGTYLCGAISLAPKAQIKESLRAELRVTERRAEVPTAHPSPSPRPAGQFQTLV", "assay": "SPR; Biacore T200; biotinylated peptides (~800 RU; L1 ~500 RU) or biotinylated PD-L1 immobilised on an SA sensor chip; PD-1 injected at 10 to 0.31 µM; PBS-P running buffer, 30 µl/min, 25°C", "conditions": "both partners purified"}, "[8]": {"conditions": "pH 8.0, 100 μM peptide, RP-HPLC"}},
  "note": "Bridge positions count the residues as written; N and C are the ends. Square brackets hold non-standard residues; d marks the D form. Ends that are not written are not given here. Peptide text beside a SMILES is read from it. * marks the point of attachment. Biotin = O=C1N[C@H]2[C@H](CS[C@H]2CCCCC(=O)*)N1; Nle = CCCC[C@H](N)C(=O)O; Abu = CC[C@H](N)C(=O)O",
  "data": [
    {"molecule": "CCCC[C@H](NC(=O)[C@H](CCC(=O)O)NC(=O)[C@H](Cc1c[nH]c2ccccc12)NC(=O)[C@H](Cc1ccc(O)cc1)NC(=O)[C@@H](NC(=O)[C@@H](NC(=O)[C@H](CC(C)C)NC(=O)[C@H](C)NC(C)=O)[C@@H](C)CC)C(C)C)C(=O)N[C@@H](CCC(=O)O)C(=O)N[C@@H](CC(=O)O)C(=O)N[C@@H](CCCCN)C(=O)N[C@@H](CC(N)=O)C(=O)N[C@H](C(=O)N[C@H](C(=O)N[C@@H](CCC(N)=O)C(=O)N[C@@H](Cc1ccccc1)C(=O)N[C@H](C(=O)N[C@@H](Cc1c[nH]cn1)C(=O)NCC(=O)N[C@@H](CCC(=O)O)C(=O)N[C@@H](CCC(=O)O)C(=O)N[C@@H](CC(=O)O)C(N)=O)C(C)C)[C@@H](C)CC)[C@@H](C)CC", "note": "[Peptide L3] (HELM PEPTIDE1{[ac].A.L.I.V.Y.W.E.[Nle].E.D.K.N.I.I.Q.F.V.H.G.E.E.D.[am]}$$$$V2.0)", "values": [
      {"measurement": "Solubility in water", "setting": "[1]", "value": "no positive effect on the solubility"}
    ]},
    {"molecule": "CCCC[C@H](NC(=O)[C@H](CCC(=O)O)NC(=O)[C@H](Cc1c[nH]c2ccccc12)NC(=O)[C@H](Cc1ccc(O)cc1)NC(=O)[C@@H](NC(=O)[C@@H](NC(=O)[C@H](CC(C)C)NC(=O)[C@H](C)NC(C)=O)[C@@H](C)CC)C(C)C)C(=O)N[C@@H](CCC(=O)O)C(=O)N[C@@H](CC(=O)O)C(=O)N[C@@H](CCCCN)C(=O)N[C@@H](CC(N)=O)C(=O)N[C@H](C(=O)N[C@H](C(=O)N[C@@H](CCC(N)=O)C(=O)N[C@@H](Cc1ccccc1)C(=O)N[C@H](C(=O)N[C@@H](Cc1c[nH]cn1)C(=O)NCC(=O)N[C@@H](CCC(=O)O)C(=O)N[C@@H](CCC(=O)O)C(=O)N[C@@H](CC(=O)O)C(=O)N[C@@H](CC(C)C)C(=O)N[C@@H](CCCCN)C(=O)N[C@H](C(=O)N[C@@H](CCC(N)=O)C(=O)N[C@@H](Cc1c[nH]cn1)C(=O)N[C@@H](CO)C(N)=O)C(C)C)C(C)C)[C@@H](C)CC)[C@@H](C)CC", "note": "[Peptide L4] (HELM PEPTIDE1{[ac].A.L.I.V.Y.W.E.[Nle].E.D.K.N.I.I.Q.F.V.H.G.E.E.D.L.K.V.Q.H.S.[am]}$$$$V2.0)", "values": [
      {"measurement": "Solubility in water", "setting": "[1]", "value": "no positive effect on the solubility"}
    ]},
    {"molecule": "CCCC[C@H](NC(=O)[C@H](CCC(=O)O)NC(=O)[C@H](Cc1c[nH]c2ccccc12)NC(=O)[C@H](Cc1ccc(O)cc1)NC(=O)[C@@H](NC(=O)[C@@H](NC(=O)[C@H](CC(C)C)NC(=O)[C@H](C)NC(=O)[C@H](C)NC(=O)[C@H](CC(C)C)NC(=O)[C@H](CC(=O)O)NC(=O)[C@H](CC(C)C)NC(=O)[C@H](CCC(N)=O)NC(=O)[C@H](CCCCN)NC(=O)[C@H](CCC(=O)O)NC(C)=O)[C@@H](C)CC)C(C)C)C(=O)N[C@@H](CCC(=O)O)C(=O)N[C@@H](CC(=O)O)C(=O)N[C@@H](CCCCN)C(=O)N[C@@H](CC(N)=O)C(=O)N[C@H](C(=O)N[C@H](C(=O)N[C@@H](CCC(N)=O)C(=O)N[C@@H](Cc1ccccc1)C(=O)N[C@H](C(N)=O)C(C)C)[C@@H](C)CC)[C@@H](C)CC", "note": "[Peptide L5] (HELM PEPTIDE1{[ac].E.K.Q.L.D.L.A.A.L.I.V.Y.W.E.[Nle].E.D.K.N.I.I.Q.F.V.[am]}$$$$V2.0)", "values": [
      {"measurement": "Solubility in water", "setting": "[1]", "value": "no positive effect on the solubility"}
    ]},
    {"molecule": "CCCC[C@H](NC(=O)[C@H](CCC(=O)O)NC(=O)[C@H](Cc1c[nH]c2ccccc12)NC(=O)[C@H](Cc1ccc(O)cc1)NC(C)=O)C(=O)N[C@@H](CCC(=O)O)C(=O)N[C@@H](CC(=O)O)C(=O)N[C@@H](CCCCN)C(=O)N[C@@H](CC(N)=O)C(=O)N[C@H](C(=O)N[C@H](C(=O)N[C@@H](CCC(N)=O)C(N)=O)[C@@H](C)CC)[C@@H](C)CC", "note": "[Peptide L6] (HELM PEPTIDE1{[ac].Y.W.E.[Nle].E.D.K.N.I.I.Q.[am]}$$$$V2.0)", "values": [
      {"measurement": "Solubility in water", "setting": "[1]", "value": "no positive effect on the solubility"}
    ]},
    {"molecule": "CCCC[C@H](NC(=O)[C@H](CC)NC(=O)[C@H](CCCNC(=N)N)NC(=O)[C@H](Cc1ccc(O)cc1)NC(=O)[C@@H](NC(C)=O)C(C)C)C(=O)N[C@H](C(=O)N[C@@H](CO)C(=O)N[C@@H](Cc1ccc(O)cc1)C(=O)NCC(=O)NCC(=O)N[C@@H](C)C(=O)N[C@@H](CC(=O)O)C(=O)N[C@@H](Cc1ccc(O)cc1)C(=O)N[C@@H](CCCCN)C(=O)N[C@@H](CCCNC(=N)N)C(=O)N[C@H](C(=O)N[C@H](C(N)=O)[C@@H](C)O)[C@@H](C)CC)[C@@H](C)CC", "note": "[Peptide L7] (HELM PEPTIDE1{[ac].V.Y.R.[Abu].[Nle].I.S.Y.G.G.A.D.Y.K.R.I.T.[am]}$$$$V2.0)", "values": [
      {"measurement": "KD of (L7) relative to (L11), fold weaker", "setting": "[2]", "value": "approximately 97 fold"},
      {"measurement": "Restoration of eGFP expression in the reporter assay", "setting": "[3]", "value": "concentration-dependent effect"}
    ]},
    {"molecule": "CCCC[C@@H]1NC(=O)[C@@H](NC(=O)[C@H](CCCNC(=N)N)NC(C)=O)CSSC[C@@H](C(=O)N[C@@H](CCCNC(=N)N)C(=O)N[C@H](C(N)=O)[C@@H](C)CC)NC(=O)[C@H](Cc2ccc(O)cc2)NC(=O)[C@H](CC(=O)O)NC(=O)[C@H](C)NC(=O)[C@H](CO)NC(=O)CNC(=O)[C@H](Cc2ccc(O)cc2)NC(=O)[C@H](CO)NC(=O)[C@H]([C@@H](C)CC)NC1=O", "note": "[Peptide L12]", "values": [
      {"measurement": "Effect on TCS Ctrl cell viability", "setting": "[4]", "value": "significant decrease in cell viability"},
      {"measurement": "Decrease in the amount of peptide at 0 h compared to control", "setting": "[5]; pH 8.0, 100 μM peptide, 0 h, RP-HPLC", "value": "approximately 10%"},
      {"measurement": "Additional decrease in peptide content after 24 h of incubation", "setting": "[5]; [8]", "value": "~11", "unit": "%"},
      {"measurement": "Stability in the medium", "setting": "[5]; RP-HPLC", "value": "highest stability"},
      {"measurement": "Effect on Jurkat E6.1 cells at lower concentrations", "setting": "[6]", "value": "no negative effects at lower concentrations"},
      {"measurement": "Number of living, metabolically active Jurkat E6.1 cells", "setting": "[6]", "value": 38, "unit": "%"}
    ]},
    {"molecule": "CCCC[C@@H]1NC(=O)[C@@H](NC(=O)[C@H](CCCNC(=N)N)NC(C)=O)CSSC[C@@H](C(=O)N[C@@H](CCCNC(=N)N)C(=O)N[C@H](C(N)=O)[C@@H](C)CC)NC(=O)[C@H](Cc2ccc(O)cc2)NC(=O)[C@H](CC(=O)O)NC(=O)[C@H](C)NC(=O)[C@H](Cc2ccccc2)NC(=O)CNC(=O)[C@H](Cc2ccc(O)cc2)NC(=O)[C@H](CO)NC(=O)[C@H]([C@@H](C)CC)NC1=O", "note": "[Peptide L13]", "values": [
      {"measurement": "Effect on Jurkat E6.1 cells at lower concentrations", "setting": "[6]", "value": "no negative effects at lower concentrations"},
      {"measurement": "Number of living, metabolically active Jurkat E6.1 cells", "setting": "[6]", "value": 3, "unit": "%"}
    ]},
    {"molecule": "CC(=O)N[C@@H](C)C(=O)N[C@@H](CC(=O)O)C(=O)N[C@@H](Cc1ccc(O)cc1)C(=O)N[C@@H](CCCCN)C(=O)N[C@@H](CCCNC(=N)N)C(N)=O", "note": "[Peptide L15] (Ac-ADYKR-NH2)", "values": [
      {"measurement": "Restoration of eGFP expression in the reporter assay", "setting": "[3]", "value": "concentration-dependent effect"},
      {"measurement": "Amount of peptide at 0 h, relative to control", "setting": "[5]; pH 8.0, 100 μM peptide, 0 h, RP-HPLC peak area vs peptide in H2O at 0 h, three independent experiments", "value": 88, "unit": "%"},
      {"measurement": "Additional decrease in peptide content after 24 h of incubation", "setting": "[5]; [8]", "value": 12, "unit": "%"},
      {"measurement": "Stability in the medium", "setting": "[5]; RP-HPLC", "value": "least concentration fluctuation"}
    ]},
    {"molecule": "Biotin-GGGGGVYR[Abu][Nle]ISYGGADYKRIT", "note": "[biotin-GGGGG-PD-L1(111–127) (L7)]", "values": [
      {"measurement": "Kd", "setting": "[7]", "value": 198, "unit": "µM"}
    ]},
    {"molecule": "Biotin-GGGGGGCYR[Abu][Nle]ISYGGADYKRICV (disulfide 7-23)", "note": "[biotin-GGGGG-PD-L1(110–128)^(V111C-T127C) (L10)]", "values": [
      {"measurement": "Kd", "setting": "[7]", "value": 22, "unit": "µM"}
    ]},
    {"molecule": "Biotin-GGGGGR[Abu][Nle]ISYGGADYKRI", "note": "[biotin-GGGGG-PD-L1(113–126) (L8)]", "values": [
      {"measurement": "Kd", "setting": "[7]", "value": 14.9, "unit": "µM"}
    ]}
  ]
}
